In patent US20230250054A1, “SELECTIVE HISTONE DEACETYLASE 6 INHIBITORS” (The Board of Trustees of the University of Illinois, priority 2020, published 2023):

How the values were obtained:
HDAC2 = target: T1, HDAC2 (Homo sapiens, UniProt Q92769); assay: Fluorescence-based HDAC inhibition assay, HDAC2; type: biochemical; settings: for IC50: 10 μM Ac-GAK(Ac)-AMC substrate, mean of two experiments ± SEM
T1 construct: made in house; host or cells: HEK293/T17 cells, transient transfection
Description: (§1) Briefly, transiently transfected cells were harvested three days post-transfection and the cell pellets resuspended in a lysis buffer (50 mM Tris, 150 mM NaCl, 10 mM KCl, 2 mM MgCl2, 10% glycerol, 0.2% NP-40, 2 Units/mL benzonase, pH 8) supplemented with a cocktail of protease inhibitors (Roche, Basel, Switzerland). Cells were lysed by sonication (30 W; 3×20 s) on ice, and the cell lysate cleared by centrifugation at 40 000×g for 30 min at 4° C. […] Purified proteins were concentrated to 1 mg/mL, aliquoted, flash-frozen in liquid nitrogen, and stored at −80° C. until further use.
(§2) Briefly, individual HDACs were preincubated with dilution series of tested inhibitors (0-100 μM) in a 384-well plate in the total volume of 40 μL for 10 min at 37° C. in a reaction buffer comprising 50 mM HEPES, 140 mM NaCl, 10 mM KCl, 1 mM TCEP, 0.1% BSA, pH 7.4. Deacetylation reaction was started by the addition of 10 μL of a 10 μM substrate into the HDAC/inhibitor mixture. Following the 30 min incubation at 37° C., the reaction was terminated by the addition of 25 μL of the trypsin solution (4 mg/mL). Fluorescence development by trypsin was carried out at 37° C. for 15 and 60 min for Ac-GAK(Ac)-AMC and Boc-Lys(TFA)-AMC substrate, respectively. […] Non-linear regression analysis was employed to calculate IC50 values using the GraphPad Prism software. […] Reactions without the enzyme or the inhibitor were used to define 0% and 100% of the HDAC activity, respectively.

HDAC1 = target: T2, HDAC1 (Homo sapiens, UniProt Q13547); assay: Fluorescence-based HDAC inhibition assay, HDAC1; type: biochemical
T2 construct: made in house; host or cells: HEK293/T17 cells, transient transfection
Description: as §1, §2

HDAC8 = target: T3, HDAC8 (Homo sapiens, UniProt Q9BY41); assay: Fluorescence-based HDAC inhibition assay, HDAC8; type: biochemical; settings: for IC50: 10 μM Boc-Lys(TFA)-AMC substrate, mean of two experiments ± SEM
T3 construct: made in house; host or cells: HEK293/T17 cells, transient transfection
T3 sequence (Q9BY41 1-377): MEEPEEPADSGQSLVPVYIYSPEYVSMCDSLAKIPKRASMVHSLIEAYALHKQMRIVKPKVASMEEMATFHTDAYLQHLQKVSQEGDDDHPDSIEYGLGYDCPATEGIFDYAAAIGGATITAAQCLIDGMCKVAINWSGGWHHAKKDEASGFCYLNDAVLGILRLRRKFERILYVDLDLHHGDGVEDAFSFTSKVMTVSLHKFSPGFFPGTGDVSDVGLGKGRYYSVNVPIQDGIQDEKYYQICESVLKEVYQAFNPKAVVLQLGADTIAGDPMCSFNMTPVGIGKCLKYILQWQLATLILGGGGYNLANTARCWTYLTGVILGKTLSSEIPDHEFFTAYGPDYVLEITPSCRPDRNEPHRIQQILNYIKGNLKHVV
Description: as §1, §2

HDAC7 = target: T4, HDAC7 (Homo sapiens, UniProt Q8WUI4); assay: Fluorescence-based HDAC inhibition assay, HDAC7; type: biochemical; settings: for IC50: 10 μM Boc-Lys(TFA)-AMC substrate, mean of two experiments ± SEM
T4 construct: made in house; host or cells: HEK293/T17 cells, transient transfection
T4 sequence (Q8WUI4 1-952): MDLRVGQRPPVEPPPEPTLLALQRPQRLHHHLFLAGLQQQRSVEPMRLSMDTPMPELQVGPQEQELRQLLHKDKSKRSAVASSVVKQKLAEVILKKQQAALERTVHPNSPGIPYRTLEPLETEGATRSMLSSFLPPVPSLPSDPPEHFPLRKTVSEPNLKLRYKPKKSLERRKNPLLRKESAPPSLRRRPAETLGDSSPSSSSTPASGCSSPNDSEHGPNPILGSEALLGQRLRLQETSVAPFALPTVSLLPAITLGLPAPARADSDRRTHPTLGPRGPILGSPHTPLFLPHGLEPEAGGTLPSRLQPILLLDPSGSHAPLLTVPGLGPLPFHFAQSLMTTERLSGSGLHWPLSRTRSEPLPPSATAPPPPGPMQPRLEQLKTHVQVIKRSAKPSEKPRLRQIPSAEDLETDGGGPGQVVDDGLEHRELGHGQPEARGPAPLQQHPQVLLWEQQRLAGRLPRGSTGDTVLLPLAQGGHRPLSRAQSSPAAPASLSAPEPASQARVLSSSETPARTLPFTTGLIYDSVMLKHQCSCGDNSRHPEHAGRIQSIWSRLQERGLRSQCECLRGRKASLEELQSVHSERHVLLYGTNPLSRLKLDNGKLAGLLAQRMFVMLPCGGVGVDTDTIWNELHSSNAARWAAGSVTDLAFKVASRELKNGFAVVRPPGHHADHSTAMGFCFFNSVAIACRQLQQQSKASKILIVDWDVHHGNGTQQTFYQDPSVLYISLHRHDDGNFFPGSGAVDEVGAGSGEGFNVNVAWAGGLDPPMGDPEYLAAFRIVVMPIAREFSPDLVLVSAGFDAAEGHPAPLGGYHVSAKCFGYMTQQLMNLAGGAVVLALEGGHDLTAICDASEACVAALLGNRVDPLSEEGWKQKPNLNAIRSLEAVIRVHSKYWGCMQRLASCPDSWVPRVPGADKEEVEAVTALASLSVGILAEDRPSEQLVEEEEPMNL
Description: as §1, §2

[1] = Stability in simulated gastric fluid (SGF)
HDAC9 = target: T5, HDAC9 (Homo sapiens, UniProt Q9UKV0); assay: Fluorescence-based HDAC inhibition assay, HDAC9; type: biochemical; settings: for IC50: 10 μM Boc-Lys(TFA)-AMC substrate, mean of two experiments ± SEM
T5 construct: made in house; host or cells: HEK293/T17 cells, transient transfection
Description: as §1, §2

[2] = 10 μM Ac-GAK(Ac)-AMC substrate, mean of two experiments ± SEM

T1 sequence (Q92769 whole entry): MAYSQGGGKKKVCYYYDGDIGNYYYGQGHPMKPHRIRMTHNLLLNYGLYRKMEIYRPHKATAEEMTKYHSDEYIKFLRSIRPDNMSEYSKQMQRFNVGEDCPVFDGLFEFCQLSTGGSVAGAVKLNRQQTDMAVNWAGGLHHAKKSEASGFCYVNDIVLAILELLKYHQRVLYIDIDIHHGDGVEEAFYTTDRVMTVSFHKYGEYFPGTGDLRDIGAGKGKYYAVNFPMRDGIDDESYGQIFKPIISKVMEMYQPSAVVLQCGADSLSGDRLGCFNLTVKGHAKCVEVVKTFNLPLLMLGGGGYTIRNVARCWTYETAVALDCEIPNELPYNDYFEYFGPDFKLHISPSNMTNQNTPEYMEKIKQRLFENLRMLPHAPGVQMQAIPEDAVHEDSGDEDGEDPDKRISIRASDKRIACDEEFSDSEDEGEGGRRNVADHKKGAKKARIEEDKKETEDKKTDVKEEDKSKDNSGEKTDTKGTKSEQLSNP
T5 sequence (Q9UKV0 whole entry): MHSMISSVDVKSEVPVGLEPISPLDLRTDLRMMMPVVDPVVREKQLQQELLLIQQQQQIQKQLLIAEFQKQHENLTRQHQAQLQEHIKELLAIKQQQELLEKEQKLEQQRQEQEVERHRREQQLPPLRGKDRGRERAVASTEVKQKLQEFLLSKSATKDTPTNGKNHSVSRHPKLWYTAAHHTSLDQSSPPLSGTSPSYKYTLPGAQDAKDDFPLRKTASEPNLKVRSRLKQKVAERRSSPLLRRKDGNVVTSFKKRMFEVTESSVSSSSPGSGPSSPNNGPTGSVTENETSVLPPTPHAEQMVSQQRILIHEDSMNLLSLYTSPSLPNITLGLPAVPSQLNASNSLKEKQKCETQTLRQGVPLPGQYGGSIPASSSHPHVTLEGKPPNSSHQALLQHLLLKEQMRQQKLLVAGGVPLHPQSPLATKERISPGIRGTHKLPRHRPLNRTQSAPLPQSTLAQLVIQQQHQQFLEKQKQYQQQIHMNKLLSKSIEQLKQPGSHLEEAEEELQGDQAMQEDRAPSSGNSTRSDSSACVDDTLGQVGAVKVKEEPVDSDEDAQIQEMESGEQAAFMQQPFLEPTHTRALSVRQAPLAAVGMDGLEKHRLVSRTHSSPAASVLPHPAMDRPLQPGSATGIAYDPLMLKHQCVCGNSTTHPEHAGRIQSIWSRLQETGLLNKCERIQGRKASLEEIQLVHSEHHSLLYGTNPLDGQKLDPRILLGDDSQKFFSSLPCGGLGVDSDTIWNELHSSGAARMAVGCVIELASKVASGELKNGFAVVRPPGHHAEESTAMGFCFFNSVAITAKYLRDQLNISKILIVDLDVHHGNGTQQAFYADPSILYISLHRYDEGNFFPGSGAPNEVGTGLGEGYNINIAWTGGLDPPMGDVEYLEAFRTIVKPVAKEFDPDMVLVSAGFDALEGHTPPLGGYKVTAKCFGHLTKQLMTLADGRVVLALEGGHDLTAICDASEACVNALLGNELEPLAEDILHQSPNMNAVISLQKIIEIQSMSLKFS
T2 sequence (Q13547 whole entry): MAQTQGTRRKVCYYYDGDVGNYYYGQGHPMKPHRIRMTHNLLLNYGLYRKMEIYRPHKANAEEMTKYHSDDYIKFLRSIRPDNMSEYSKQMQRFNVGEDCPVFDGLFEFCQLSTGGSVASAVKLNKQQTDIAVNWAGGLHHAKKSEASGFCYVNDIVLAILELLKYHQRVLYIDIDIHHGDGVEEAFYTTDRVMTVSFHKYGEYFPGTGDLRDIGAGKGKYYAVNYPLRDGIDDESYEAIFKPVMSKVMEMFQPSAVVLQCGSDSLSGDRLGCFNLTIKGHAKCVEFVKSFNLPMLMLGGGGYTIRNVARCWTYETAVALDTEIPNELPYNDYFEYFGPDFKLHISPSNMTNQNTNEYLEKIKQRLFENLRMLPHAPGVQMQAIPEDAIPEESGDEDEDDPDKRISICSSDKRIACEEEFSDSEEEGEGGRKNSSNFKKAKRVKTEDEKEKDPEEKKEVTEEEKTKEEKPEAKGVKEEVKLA

| Compound | SI (HDAC6 selectivity index over HDAC2) (HDAC2) | IC50 (HDAC2) | SI (HDAC6 selectivity index over HDAC1) (HDAC1) | IC50 (HDAC1; [2]) | IC50 (HDAC1; Table 2) | HDAC1/6 (HDAC1; ratio HDAC1 IC50 / HDAC6 IC50, Table 2) | SI (HDAC6 selectivity index over HDAC8) (HDAC8) | IC50 (HDAC8) | SI (HDAC6 selectivity index over HDAC7) (HDAC7) | IC50 (HDAC7) | SGF stability (t1/2, h) [1] | SI (HDAC6 selectivity index over HDAC9) (HDAC9) | IC50 (HDAC9) | Human plasma stability (t1/2, h) (Human plasma stability) |
| --- | --- | --- | --- | --- | --- | --- | --- | --- | --- | --- | --- | --- | --- | --- |
| NCc1ccc(NC(=O)N(CCCCO)Cc2ccc(C(=O)NO)cc2)cc1 [Compound 6a, 4-((3-(4-(Aminomethyl)phenyl)-1-(4-hydroxybutyl)ureido)methyl)-N-hydroxybenz-amide] | 440 | 176 ± 21 nM | 293 | 117 ± 10 nM | 117 ± 10 nM | 293 | 1,250 | 498 ± 58 nM | 3,680 | 1470 nM | >5 h | 15,700 | 6270 nM | >5 h |
| CCCCN(Cc1ccc(C(=O)NO)cc1)C(=O)Nc1ccc(CN)cc1 [Compound 6b, 4-((3-(4-(Aminomethyl)phenyl)-1-butylureido)methyl)-N-hydroxybenzamide] | 312 | 281 ± 28 nM | 89 | 80 ± 45 nM | – | – | 682 | 614 ± 58 nM | 10,000 | 9000 nM | >5 h | 19,200 | 17300 nM | >5 h |
| O=C(NO)c1ccc(CN(CCCCO)C(=O)Nc2ccccc2)cc1 [Compound 6c, reference compound] | 536 | 268 ± 16 nM | 296 | 148 ± 9 nM | – | – | 956 | 478 ± 97 nM | – | 1930 nM | >5 h | 59,50 | 29700 nM | >5 h |
